Experimental data reported in PubChem BioAssay (NCI).
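Each compound was tested at five concentrations against cells in 96-well plates for 48 hours. GI50 is the concentration that inhibits growth by half. The concentration for full growth arrest is given as TGI.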

Experiments:
Test in all cases: NCI anticancer screen, dose series, 48 h
MALME-3M melanoma = tested on: MALME-3M melanoma
M14 melanoma = tested on: M14 melanoma
SK-MEL-28 melanoma = tested on: SK-MEL-28 melanoma
HOP-92 NSCLC = tested on: HOP-92 NSCLC
CCRF-CEM leukemia = tested on: CCRF-CEM leukemia
MDA-MB-435 = tested on: MDA-MB-435
K-562 leukemia = tested on: K-562 leukemia
ACHN renal = tested on: ACHN renal
RPMI-8226 leukemia = tested on: RPMI-8226 leukemia
HS 578T breast = tested on: HS 578T breast
MDA-MB-231 breast = tested on: MDA-MB-231 breast
IGROV1 ovarian = tested on: IGROV1 ovarian
UO-31 renal = tested on: UO-31 renal
NCI-H23 lung = tested on: NCI-H23 lung
COLO 205 colon = tested on: COLO 205 colon
SF-295 CNS = tested on: SF-295 CNS
BT-549 breast = tested on: BT-549 breast
T-47D breast = tested on: T-47D breast
MCF7 breast = tested on: MCF7 breast
LOX IMVI melanoma = tested on: LOX IMVI melanoma
HT29 colon = tested on: HT29 colon
CAKI-1 renal = tested on: CAKI-1 renal
OVCAR-5 ovarian = tested on: OVCAR-5 ovarian
SK-MEL-2 melanoma = tested on: SK-MEL-2 melanoma
MOLT-4 leukemia = tested on: MOLT-4 leukemia
NCI-H460 lung = tested on: NCI-H460 lung
DU-145 prostate = tested on: DU-145 prostate
SF-539 CNS = tested on: SF-539 CNS
UACC-257 melanoma = tested on: UACC-257 melanoma
A498 renal = tested on: A498 renal
NCI/ADR-RES ovarian = tested on: NCI/ADR-RES ovarian
OVCAR-8 ovarian = tested on: OVCAR-8 ovarian
HCC-2998 colon = tested on: HCC-2998 colon
RXF 393 renal = tested on: RXF 393 renal
NCI-H226 lung = tested on: NCI-H226 lung
SW-620 colon = tested on: SW-620 colon
PC-3 prostate = tested on: PC-3 prostate
NCI-H522 lung = tested on: NCI-H522 lung
SN12C renal = tested on: SN12C renal
KM12 colon = tested on: KM12 colon
SK-OV-3 ovarian = tested on: SK-OV-3 ovarian
OVCAR-3 ovarian = tested on: OVCAR-3 ovarian
HL-60(TB) leukemia = tested on: HL-60(TB) leukemia
HCT-116 colon = tested on: HCT-116 colon
U251 CNS = tested on: U251 CNS
HOP-62 NSCLC = tested on: HOP-62 NSCLC
SR leukemia = tested on: SR leukemia
A549 NSCLC = tested on: A549 NSCLC
786-0 renal = tested on: 786-0 renal
UACC-62 melanoma = tested on: UACC-62 melanoma
SNB-19 CNS = tested on: SNB-19 CNS
SK-MEL-5 melanoma = tested on: SK-MEL-5 melanoma
EKVX NSCLC = tested on: EKVX NSCLC
TK-10 renal = tested on: TK-10 renal
SNB-75 CNS = tested on: SNB-75 CNS
SF-268 CNS = tested on: SF-268 CNS
HCT-15 colon = tested on: HCT-15 colon
OVCAR-4 ovarian = tested on: OVCAR-4 ovarian

## Cc1cccc(Cl)c1NC(=O)c1cnc(Nc2cc(N3CCOCC3)cc(N3CCOCC3)c2)s1
MALME-3M melanoma
  GI50: > 4.82 µM
  TGI: > 10 µM
M14 melanoma
  GI50: 4.18 µM
  TGI: > 10 µM
SK-MEL-28 melanoma
  GI50: > 5.32 µM
  TGI: > 10 µM
HOP-92 NSCLC
  GI50: 0.00255 µM
  TGI: 0.031 µM
CCRF-CEM leukemia
  GI50: > 6.27 µM
  TGI: > 10 µM
MDA-MB-435
  GI50: 4.08 µM
  TGI: > 10 µM
K-562 leukemia
  GI50: 0.00147 µM
  TGI: > 10 µM
ACHN renal
  GI50: 0.00887 µM
  TGI: 0.171 µM
RPMI-8226 leukemia
  GI50: > 6.24 µM
  TGI: > 10 µM
HS 578T breast
  GI50: 0.0151 µM
  TGI: 0.157 µM
MDA-MB-231 breast
  GI50: 0.0189 µM
  TGI: > 4.59 µM
IGROV1 ovarian
  GI50: 0.00355 µM
  TGI: 0.0621 µM
UO-31 renal
  GI50: 0.0067 µM
  TGI: 0.789 µM
NCI-H23 lung
  GI50: > 9.24 µM
  TGI: > 10 µM
COLO 205 colon
  GI50: 0.122 µM
  TGI: > 8.09 µM
SF-295 CNS
  GI50: 0.154 µM
  TGI: > 10 µM
BT-549 breast
  GI50: > 4.46 µM
  TGI: > 10 µM
T-47D breast
  GI50: 0.0368 µM
  TGI: > 10 µM
MCF7 breast
  GI50: > 4.47 µM
  TGI: > 10 µM
LOX IMVI melanoma
  GI50: 0.012 µM
  TGI: 0.083 µM
HT29 colon
  GI50: 0.0181 µM
  TGI: 0.19 µM
CAKI-1 renal
  GI50: 0.00467 µM
  TGI: 0.0246 µM
OVCAR-5 ovarian
  GI50: 0.0275 µM
  TGI: > 10 µM
SK-MEL-2 melanoma
  GI50: > 5.25 µM
  TGI: > 10 µM
MOLT-4 leukemia
  GI50: > 4.96 µM
  TGI: > 10 µM
NCI-H460 lung
  GI50: > 5.16 µM
  TGI: > 10 µM
DU-145 prostate
  GI50: 0.163 µM
  TGI: > 3.6 µM
SF-539 CNS
  GI50: 0.0366 µM
  TGI: > 6.8 µM
UACC-257 melanoma
  GI50: > 7.93 µM
  TGI: > 10 µM
A498 renal
  GI50: 0.0248 µM
  TGI: 0.473 µM
NCI/ADR-RES ovarian
  GI50: 1.05 µM
  TGI: > 10 µM
OVCAR-8 ovarian
  GI50: 0.0842 µM
  TGI: > 10 µM
HCC-2998 colon
  GI50: > 4.21 µM
  TGI: > 10 µM
RXF 393 renal
  GI50: 0.0123 µM
  TGI: 0.153 µM
NCI-H226 lung
  GI50: 0.601 µM
  TGI: > 10 µM
SW-620 colon
  GI50: > 6.79 µM
  TGI: > 10 µM
PC-3 prostate
  GI50: 0.152 µM
  TGI: > 10 µM
NCI-H522 lung
  GI50: 0.0307 µM
  TGI: > 5.79 µM
SN12C renal
  GI50: 0.0535 µM
  TGI: > 10 µM
KM12 colon
  GI50: > 6.22 µM
  TGI: > 10 µM
SK-OV-3 ovarian
  GI50: 0.0178 µM
  TGI: 1.6 µM
OVCAR-3 ovarian
  GI50: 0.0644 µM
  TGI: > 10 µM
HL-60(TB) leukemia
  GI50: 9.98 µM
  TGI: > 10 µM
HCT-116 colon
  GI50: 0.0328 µM
  TGI: > 10 µM
U251 CNS
  GI50: > 3.85 µM
  TGI: > 10 µM
HOP-62 NSCLC
  GI50: 0.022 µM
  TGI: > 10 µM
SR leukemia
  TGI: > 10 µM
A549 NSCLC
  GI50: 0.158 µM
  TGI: > 10 µM
786-0 renal
  GI50: 0.0183 µM
UACC-62 melanoma
  GI50: 1.7 µM
  TGI: > 10 µM
SNB-19 CNS
  GI50: > 3.36 µM
  TGI: > 10 µM
SK-MEL-5 melanoma
  GI50: > 8.96 µM
  TGI: > 10 µM
EKVX NSCLC
  GI50: 0.213 µM
  TGI: > 10 µM
TK-10 renal
  GI50: 0.00622 µM
  TGI: 0.0729 µM
SNB-75 CNS
  GI50: 0.00147 µM
  TGI: 0.0176 µM
SF-268 CNS
  GI50: 0.0626 µM
  TGI: > 10 µM
HCT-15 colon
  GI50: 0.39 µM
  TGI: > 10 µM
OVCAR-4 ovarian
  GI50: > 4.05 µM
  TGI: > 10 µM

## CN1C(=O)C(=Cc2cn(Cc3ccccc3)c3ccccc23)C(=O)N(C)C1=O
MALME-3M melanoma
  GI50: 42.1 µM
  TGI: > 100 µM
M14 melanoma
  GI50: 48.7 µM
  TGI: > 100 µM
SK-MEL-28 melanoma
  GI50: > 70.2 µM
  TGI: > 100 µM
HOP-92 NSCLC
  GI50: 14.7 µM
  TGI: > 70.9 µM
CCRF-CEM leukemia
  GI50: > 77.6 µM
  TGI: > 100 µM
MDA-MB-435
  GI50: > 83.3 µM
  TGI: > 100 µM
K-562 leukemia
  GI50: 5.08 µM
  TGI: > 100 µM
ACHN renal
  GI50: 51.8 µM
  TGI: > 100 µM
RPMI-8226 leukemia
  GI50: 26.9 µM
  TGI: > 100 µM
HS 578T breast
  GI50: 17.8 µM
  TGI: > 81.5 µM
MDA-MB-231 breast
  GI50: 54.1 µM
  TGI: > 100 µM
IGROV1 ovarian
  GI50: 1.64 µM
UO-31 renal
  GI50: > 38.8 µM
  TGI: > 81.4 µM
NCI-H23 lung
  GI50: 44.2 µM
  TGI: > 100 µM
COLO 205 colon
  GI50: 0.712 µM
  TGI: 6.67 µM
SF-295 CNS
  GI50: 0.732 µM
  TGI: > 100 µM
BT-549 breast
  GI50: 56.5 µM
  TGI: > 100 µM
T-47D breast
  GI50: 3.91 µM
  TGI: > 75.3 µM
MCF7 breast
  GI50: 21.4 µM
  TGI: > 100 µM
LOX IMVI melanoma
  GI50: 35.3 µM
  TGI: > 100 µM
HT29 colon
  GI50: > 78.8 µM
  TGI: > 100 µM
CAKI-1 renal
  TGI: > 25.5 µM
OVCAR-5 ovarian
  GI50: 0.234 µM
  TGI: 0.82 µM
SK-MEL-2 melanoma
  TGI: > 67.6 µM
MOLT-4 leukemia
  GI50: 68.3 µM
  TGI: > 100 µM
NCI-H460 lung
  GI50: 1.24 µM
  TGI: > 100 µM
DU-145 prostate
  GI50: 87.2 µM
  TGI: > 100 µM
SF-539 CNS
  GI50: 47.3 µM
  TGI: > 100 µM
UACC-257 melanoma
  GI50: 9.82 µM
  TGI: > 100 µM
A498 renal
  GI50: 0.518 µM
  TGI: 1.19 µM
NCI/ADR-RES ovarian
  GI50: > 70 µM
  TGI: > 100 µM
OVCAR-8 ovarian
  GI50: 35.8 µM
  TGI: > 82.6 µM
HCC-2998 colon
  GI50: > 33.7 µM
  TGI: > 70.8 µM
RXF 393 renal
  GI50: 23.1 µM
  TGI: > 100 µM
NCI-H226 lung
  GI50: 3.46 µM
  TGI: 27.8 µM
SW-620 colon
  GI50: > 92.4 µM
  TGI: > 100 µM
PC-3 prostate
  GI50: 27 µM
  TGI: > 100 µM
NCI-H522 lung
  GI50: > 100 µM
  TGI: > 100 µM
SN12C renal
  GI50: 54.8 µM
  TGI: > 100 µM
KM12 colon
  GI50: 52.4 µM
  TGI: > 100 µM
SK-OV-3 ovarian
  GI50: 6.16 µM
  TGI: > 100 µM
OVCAR-3 ovarian
  GI50: 20.8 µM
  TGI: > 100 µM
HL-60(TB) leukemia
  GI50: > 43.4 µM
  TGI: > 100 µM
HCT-116 colon
  GI50: 11.1 µM
  TGI: > 100 µM
U251 CNS
  GI50: 18.2 µM
  TGI: > 71.3 µM
HOP-62 NSCLC
  GI50: 43 µM
  TGI: > 100 µM
SR leukemia
  GI50: 43.1 µM
  TGI: > 100 µM
A549 NSCLC
  GI50: > 39.7 µM
  TGI: > 100 µM
786-0 renal
  GI50: 57.7 µM
  TGI: > 100 µM
UACC-62 melanoma
  GI50: 1.87 µM
  TGI: > 35.3 µM
SNB-19 CNS
  GI50: > 100 µM
  TGI: > 100 µM
SK-MEL-5 melanoma
  GI50: 25.7 µM
  TGI: > 100 µM
EKVX NSCLC
  GI50: 35.8 µM
  TGI: > 100 µM
TK-10 renal
  GI50: 4.28 µM
  TGI: 56.5 µM
SNB-75 CNS
  GI50: 34.2 µM
  TGI: > 100 µM
SF-268 CNS
  GI50: > 86.6 µM
  TGI: > 100 µM
HCT-15 colon
  GI50: > 95.6 µM
  TGI: > 100 µM
OVCAR-4 ovarian
  GI50: 5.85 µM
  TGI: > 100 µM
